A short description of data set [1]: Molar enthalpy of transition or fusion. Particulars: Crystal; DSC.
The conditions of data set [2]: Crystal; DTA.

These results are taken from the NIST ThermoML archive (doi:10.1016/j.fluid.2016.08.019).

The structures appear in SMILES notation. Numbers after ± are expanded uncertainties.

In the case of `CCOc1ccccc1C(N)=O` [Ethenzamide], in data set [1], the “Molar enthalpy of transition or fusion” value was 4.89 ± 0.222 kcal/mol. For the same compound, the Normal melting temperature in data set [2] amounted to 138.33 ± 0.39 °C.
